The source made the active and inactive calls. The rule behind the calls is not given here.
Legend:
[1] = target: T1, CX3C chemokine receptor 1 (Homo sapiens) (UniProt P49238); assay: Antagonist activity at CX3CR1 (unknown origin) assessed as inhibition of chemotaxis at 10 uM
T1 sequence (whole entry): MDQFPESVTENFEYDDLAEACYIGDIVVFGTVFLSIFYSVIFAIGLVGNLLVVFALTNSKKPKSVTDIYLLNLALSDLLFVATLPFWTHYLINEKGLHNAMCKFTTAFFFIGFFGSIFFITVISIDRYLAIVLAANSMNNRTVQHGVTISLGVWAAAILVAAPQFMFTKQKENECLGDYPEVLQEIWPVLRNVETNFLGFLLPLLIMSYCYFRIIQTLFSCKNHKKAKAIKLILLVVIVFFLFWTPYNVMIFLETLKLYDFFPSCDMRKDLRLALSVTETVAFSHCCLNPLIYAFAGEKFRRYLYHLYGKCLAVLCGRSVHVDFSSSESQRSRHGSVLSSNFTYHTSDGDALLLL

[2] = target: Atypical chemokine receptor 3 (Homo sapiens) (UniProt P25106); assay: Antagonist activity at CXCR7 (unknown origin) assessed as inhibition of chemotaxis at 10 uM
[3] = target: C-X-C chemokine receptor type 4 (Homo sapiens) (UniProt P61073); assay: Antagonist activity at CXCR4 (unknown origin) assessed as inhibition of chemotaxis at 10 uM
[4] = target: C-C chemokine receptor type 2 (Homo sapiens) (UniProt P41597); assay: Antagonist activity at CCR2 (unknown origin) assessed as inhibition of chemotaxis at 10 uM
[5] = target: Atypical chemokine receptor 3 (Homo sapiens) (UniProt P25106); assay: Antagonist activity at CXCR7 (unknown origin) assessed as inhibition of calcium flux at 10 uM; type: functional
[6] = target: T2, C-X-C chemokine receptor type 3 (Homo sapiens) (UniProt P49682); assay: Antagonist activity at CXCR3 (unknown origin) assessed as inhibition of calcium flux at 10 uM; type: functional
T2 sequence (whole entry): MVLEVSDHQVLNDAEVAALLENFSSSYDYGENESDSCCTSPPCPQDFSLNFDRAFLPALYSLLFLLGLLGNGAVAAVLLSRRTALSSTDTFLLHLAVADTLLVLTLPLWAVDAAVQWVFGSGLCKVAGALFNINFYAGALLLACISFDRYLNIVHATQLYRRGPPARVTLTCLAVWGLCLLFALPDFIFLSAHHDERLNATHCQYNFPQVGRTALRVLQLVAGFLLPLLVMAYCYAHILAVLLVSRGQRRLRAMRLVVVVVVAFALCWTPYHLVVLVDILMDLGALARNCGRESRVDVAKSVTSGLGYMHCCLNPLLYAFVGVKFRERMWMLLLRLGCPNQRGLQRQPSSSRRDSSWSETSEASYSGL

[7] = target: T3, C-C chemokine receptor type 7 (Homo sapiens) (UniProt P32248); assay: Antagonist activity at CCR7 (unknown origin) assessed as inhibition of calcium flux at 10 uM; type: functional
T3 sequence (whole entry): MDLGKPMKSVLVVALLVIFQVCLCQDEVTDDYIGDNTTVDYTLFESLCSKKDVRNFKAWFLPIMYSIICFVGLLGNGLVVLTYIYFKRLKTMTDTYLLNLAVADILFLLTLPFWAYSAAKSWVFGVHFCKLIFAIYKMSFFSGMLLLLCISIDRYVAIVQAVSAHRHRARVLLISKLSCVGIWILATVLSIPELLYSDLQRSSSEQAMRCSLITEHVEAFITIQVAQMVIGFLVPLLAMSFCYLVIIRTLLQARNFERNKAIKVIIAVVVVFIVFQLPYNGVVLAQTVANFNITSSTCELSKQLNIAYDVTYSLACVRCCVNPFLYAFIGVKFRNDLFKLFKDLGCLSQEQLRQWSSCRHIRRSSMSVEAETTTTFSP

[8] = target: C-C chemokine receptor type 2 (Homo sapiens) (UniProt P41597); assay: Antagonist activity at CCR2 (unknown origin) assessed as inhibition of calcium flux at 10 uM; type: functional
[9] = test system: Cytomegalovirus; assay: Binding affinity to CMV US28 at 10 uM by radioligand displacement assay
[10] = target: Atypical chemokine receptor 3 (Homo sapiens) (UniProt P25106); assay: Binding affinity to CXCR7 (unknown origin) at 10 uM by radioligand displacement assay
[11] = target: T4, C-C chemokine receptor type 9 (Homo sapiens) (UniProt P51686); assay: Binding affinity to CCR9 (unknown origin) at 10 uM by radioligand displacement assay
T4 sequence (whole entry): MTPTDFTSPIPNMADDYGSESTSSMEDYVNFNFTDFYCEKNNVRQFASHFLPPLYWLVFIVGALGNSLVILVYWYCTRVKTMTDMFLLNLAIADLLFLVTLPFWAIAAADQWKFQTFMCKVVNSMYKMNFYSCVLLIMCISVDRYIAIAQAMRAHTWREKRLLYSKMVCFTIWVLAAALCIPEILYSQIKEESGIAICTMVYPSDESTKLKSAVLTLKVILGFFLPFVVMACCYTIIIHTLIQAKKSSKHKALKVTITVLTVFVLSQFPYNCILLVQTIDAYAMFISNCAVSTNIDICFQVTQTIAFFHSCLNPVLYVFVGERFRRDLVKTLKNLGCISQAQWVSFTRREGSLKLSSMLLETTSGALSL

[12] = target: T5, C-C chemokine receptor type 10 (Homo sapiens) (UniProt P46092); assay: Binding affinity to CCR10 (unknown origin) at 10 uM by radioligand displacement assay
T5 sequence (whole entry): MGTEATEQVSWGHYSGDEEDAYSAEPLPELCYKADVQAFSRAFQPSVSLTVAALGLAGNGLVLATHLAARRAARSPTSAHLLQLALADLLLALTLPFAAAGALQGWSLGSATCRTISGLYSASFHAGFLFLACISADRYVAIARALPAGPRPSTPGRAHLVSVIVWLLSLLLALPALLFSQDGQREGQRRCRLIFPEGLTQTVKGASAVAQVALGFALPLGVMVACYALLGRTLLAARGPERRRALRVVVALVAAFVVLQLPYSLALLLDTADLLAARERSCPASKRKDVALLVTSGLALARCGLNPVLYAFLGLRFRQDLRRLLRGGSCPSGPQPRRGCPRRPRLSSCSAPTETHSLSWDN

[13] = target: C-C chemokine receptor type 8 (Homo sapiens) (UniProt P51685); assay: Binding affinity to CCR8 (unknown origin) at 10 uM by radioligand displacement assay
[14] = target: C-C chemokine receptor type 2 (Homo sapiens) (UniProt P41597); assay: Binding affinity to CCR2 (unknown origin) at 10 uM by radioligand displacement assay
[15] = target: Voltage-gated inwardly rectifying potassium channel KCNH2 (Homo sapiens, UniProt Q12809); assay: Binding affinity to human ERG by patch clamp assay
[16] = target: Cytochrome P450 2C19 (Homo sapiens, UniProt P33261); assay: Inhibition of CYP2C19 (unknown origin); type: ADME
[17] = test system: Rattus norvegicus; assay: Acute toxicity in Sprague-Dawley rat up to 1000 mg/kg; type: organism-based; set-up: dose 1000 mg/kg; conditions: in vivo

Chain of C-C chemokine receptor type 2 (Homo sapiens) (P41597 whole entry, looked up): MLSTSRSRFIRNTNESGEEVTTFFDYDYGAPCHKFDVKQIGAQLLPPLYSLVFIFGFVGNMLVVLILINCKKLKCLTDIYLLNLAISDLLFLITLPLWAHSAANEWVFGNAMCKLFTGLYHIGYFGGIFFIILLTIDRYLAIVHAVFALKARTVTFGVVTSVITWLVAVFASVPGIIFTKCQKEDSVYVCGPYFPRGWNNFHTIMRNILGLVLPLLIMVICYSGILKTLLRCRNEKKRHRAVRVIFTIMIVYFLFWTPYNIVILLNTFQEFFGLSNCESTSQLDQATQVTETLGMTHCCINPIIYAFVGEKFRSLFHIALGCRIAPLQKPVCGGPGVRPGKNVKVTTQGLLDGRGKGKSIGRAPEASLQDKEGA
Chain of Atypical chemokine receptor 3 (Homo sapiens) (P25106 whole entry): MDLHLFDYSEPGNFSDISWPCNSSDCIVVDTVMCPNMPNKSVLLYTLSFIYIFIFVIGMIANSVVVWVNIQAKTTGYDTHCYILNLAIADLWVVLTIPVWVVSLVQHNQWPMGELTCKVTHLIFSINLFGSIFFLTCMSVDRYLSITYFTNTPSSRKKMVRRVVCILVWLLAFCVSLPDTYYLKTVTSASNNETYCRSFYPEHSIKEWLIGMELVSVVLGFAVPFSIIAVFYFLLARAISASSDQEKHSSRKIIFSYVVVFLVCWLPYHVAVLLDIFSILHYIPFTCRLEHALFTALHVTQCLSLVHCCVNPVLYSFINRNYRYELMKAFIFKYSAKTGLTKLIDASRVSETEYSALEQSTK
Chain of Voltage-gated inwardly rectifying potassium channel KCNH2 (Q12809 whole entry): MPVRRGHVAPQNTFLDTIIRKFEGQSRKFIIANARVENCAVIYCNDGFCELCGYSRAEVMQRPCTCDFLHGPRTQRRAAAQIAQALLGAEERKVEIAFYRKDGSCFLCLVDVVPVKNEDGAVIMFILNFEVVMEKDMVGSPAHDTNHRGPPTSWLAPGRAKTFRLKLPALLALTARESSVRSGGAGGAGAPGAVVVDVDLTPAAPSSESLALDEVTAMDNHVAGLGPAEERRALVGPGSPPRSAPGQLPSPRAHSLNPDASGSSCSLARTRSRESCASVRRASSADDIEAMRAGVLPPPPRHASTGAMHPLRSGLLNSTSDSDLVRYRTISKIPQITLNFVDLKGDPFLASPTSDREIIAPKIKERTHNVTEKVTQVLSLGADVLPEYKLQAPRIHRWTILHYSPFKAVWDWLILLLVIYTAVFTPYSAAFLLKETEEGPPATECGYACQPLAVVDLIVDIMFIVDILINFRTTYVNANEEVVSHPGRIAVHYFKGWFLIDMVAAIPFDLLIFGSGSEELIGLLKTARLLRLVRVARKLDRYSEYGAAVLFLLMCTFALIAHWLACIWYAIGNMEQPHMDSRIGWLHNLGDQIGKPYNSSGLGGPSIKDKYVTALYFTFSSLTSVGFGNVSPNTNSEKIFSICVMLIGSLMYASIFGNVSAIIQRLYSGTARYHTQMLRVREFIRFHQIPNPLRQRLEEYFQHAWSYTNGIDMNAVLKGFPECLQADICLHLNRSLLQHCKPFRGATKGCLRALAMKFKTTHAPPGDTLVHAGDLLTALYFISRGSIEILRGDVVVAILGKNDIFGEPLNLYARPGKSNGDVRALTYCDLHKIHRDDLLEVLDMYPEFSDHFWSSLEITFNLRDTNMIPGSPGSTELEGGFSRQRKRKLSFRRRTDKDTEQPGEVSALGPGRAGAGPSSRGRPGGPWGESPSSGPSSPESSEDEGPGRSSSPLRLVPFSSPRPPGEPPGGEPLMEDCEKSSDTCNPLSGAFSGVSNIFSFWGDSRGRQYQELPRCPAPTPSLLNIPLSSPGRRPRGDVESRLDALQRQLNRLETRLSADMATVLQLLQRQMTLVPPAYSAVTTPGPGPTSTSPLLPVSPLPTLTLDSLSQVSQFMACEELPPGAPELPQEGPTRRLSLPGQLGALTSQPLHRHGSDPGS
Chain of C-X-C chemokine receptor type 4 (Homo sapiens) (P61073 whole entry): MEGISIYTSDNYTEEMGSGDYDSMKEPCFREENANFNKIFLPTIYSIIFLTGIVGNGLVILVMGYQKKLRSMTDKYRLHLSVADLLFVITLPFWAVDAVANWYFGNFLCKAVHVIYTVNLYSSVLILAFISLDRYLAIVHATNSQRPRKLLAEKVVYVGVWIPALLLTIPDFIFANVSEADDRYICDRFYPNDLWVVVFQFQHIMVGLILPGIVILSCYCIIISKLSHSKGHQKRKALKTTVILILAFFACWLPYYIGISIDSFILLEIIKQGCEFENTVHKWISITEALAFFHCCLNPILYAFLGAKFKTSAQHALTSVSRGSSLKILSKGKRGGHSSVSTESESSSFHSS
Chain of Cytochrome P450 2C19 (P33261 whole entry): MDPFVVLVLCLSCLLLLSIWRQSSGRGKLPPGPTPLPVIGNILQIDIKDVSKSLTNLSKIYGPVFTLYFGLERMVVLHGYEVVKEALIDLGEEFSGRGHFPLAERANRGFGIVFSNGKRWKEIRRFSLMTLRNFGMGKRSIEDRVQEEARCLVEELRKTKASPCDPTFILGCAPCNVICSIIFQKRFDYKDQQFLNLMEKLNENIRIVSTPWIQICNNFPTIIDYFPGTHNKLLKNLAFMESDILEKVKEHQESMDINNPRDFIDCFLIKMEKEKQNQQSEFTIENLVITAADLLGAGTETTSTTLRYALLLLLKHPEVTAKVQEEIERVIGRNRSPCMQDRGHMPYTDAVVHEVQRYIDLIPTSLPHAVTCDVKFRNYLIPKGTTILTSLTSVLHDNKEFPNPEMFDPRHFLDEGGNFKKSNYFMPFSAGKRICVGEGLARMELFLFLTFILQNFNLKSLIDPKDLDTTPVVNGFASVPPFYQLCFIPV
Chain of C-C chemokine receptor type 8 (Homo sapiens) (P51685 whole entry): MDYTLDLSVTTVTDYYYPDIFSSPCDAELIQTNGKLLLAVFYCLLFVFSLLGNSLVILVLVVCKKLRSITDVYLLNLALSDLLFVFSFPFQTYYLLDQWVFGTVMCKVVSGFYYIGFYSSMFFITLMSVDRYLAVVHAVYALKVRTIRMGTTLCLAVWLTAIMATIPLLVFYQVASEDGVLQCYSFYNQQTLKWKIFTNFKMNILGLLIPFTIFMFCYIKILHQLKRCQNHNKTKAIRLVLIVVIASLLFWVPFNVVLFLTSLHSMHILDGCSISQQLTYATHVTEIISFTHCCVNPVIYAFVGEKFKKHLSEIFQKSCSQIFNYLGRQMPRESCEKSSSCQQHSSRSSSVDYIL

COc1cc(N2CCN(C(=O)Cn3nc(C(F)(F)F)c(Cl)c3C)CC2)ccc1Cl
inhibition [1]: inactive
inhibition [2]: inactive
inhibition [3]: inactive
inhibition [4]: inactive
inhibition [5]: inactive
inhibition [6]: inactive
inhibition [7]: inactive
inhibition [8]: inactive
Activity [9]: inactive
Activity [10]: inactive
Activity [11]: inactive
Activity [12]: inactive
Activity [13]: inactive
Activity [14]: inactive
IC50 [15]: 16 µM
IC50 [16]: 6 µM
Activity [17]: Non-toxic

— ChEMBL document CHEMBL2321873, “1-(4-Phenylpiperazin-1-yl)-2-(1H-pyrazol-1-yl)ethanones as novel CCR1 antagonists” (Bioorg Med Chem Lett, 2013)
